Structures can show the parent of a compound that is named as a salt.
Tests used:
[1] = test system: epidermal keratinocytes of human neonates; assay: Oxytocin release by differentiated keratinocytes after ATP gamma s addition (ELISA of culture medium); format: cell-based
Experimental: The keratinocytes used herein were epidermal keratinocytes of human neonates up to a passage number of 4 (Kurabo Industries Ltd.). The culture medium was Defined Keratinocyte-SFM (Invitrogen Japan K.K.). The keratinocytes were grown to confluence in 10-cm dishes at 37° C. for several days with the culture medium replaced on alternate days, and then the calcium chloride concentration in the culture medium was increased to 1.8 mM thereby inducing differentiation. After a lapse of 45 hours, adenosine-5′-(3-thio)triphosphoric acid tetralithium salt (Sigma Co., hereinafter referred to as “ATP gamma s-Li”) was added to each dish so as to make the final concentrations of 0, 10, 30, 100, and 300 μM, and the incubation of culture was continued at 37° C. The culture medium was collected 10 minutes after the addition of ATP gamma s, and the amount of oxytocin was measured with the ELISA method.
Oxytocin in the collected culture medium was purified and concentrated using a reversed phase column (C18 Sep-pak Light, Waters Co.), and eluted with an aqueous solution containing 60% acetonitrile and 0.1% trifluoroacetic acid. More specifically, the column eluate fraction containing oxytocin was freeze-dried, and dissolved again in a small amount of buffer solution (included in the EIA kit), and the oxytocin in the culture medium was concentrated at least 20 fold. Thereafter, the oxytocin concentration in the concentrated oxytocin solution was measured by the competitive ELISA method using Oxytocin EIA Kit (Assay Designs, Inc). The measurement procedure described in the instruction manual attached to the kit was followed. […] The absorbance of the color reaction by alkaline phosphatase was measured, and a semilogarithmic standard curve was generated by plotting the absorbance change due to the competitive inhibition against the known amount of oxytocin. The standard curve was used to determine the amount of oxytocin corresponding to the absorbance of the sample. […]

keratinocytes = details: added to keratinocytes; J. Clin. Invest. (1992) 90, 42-51; Biochem. J. (2004) 380, 329-338; cited from earlier work

In the case of `Nc1ncnc2c1ncn2[C@@H]1O[C@H](COP(=O)(O)OP(=O)(O)OP(O)(O)=S)[C@@H](O)[C@H]1O` [ATP gamma s, adenosine-5′-(3-thio)triphosphoric acid tetralithium salt], the “change of oxytocin concentration in the culture media with ATP gamma s concentration” value ([1]; 0, 10, 30, 100, 300 μM ATP gamma s, 10 minutes, no EGTA) is given as “increased with increases of ATP gamma s”, the “oxytocin concentration in the culture medium” value ([1]; 300 μM ATP gamma s, medium collected 10 minutes after addition, 37° C., ELISA) is given as “exceeded 7 pg/mL” and the “Ca2+ concentration in the keratinocytes” value (keratinocytes) is given as “increase the Ca^2+ concentration in the keratinocytes in a concentration-dependent manner”.
In the case of `Nc1ncnc2c1ncn2[C@@H]1O[C@H](COP(=O)(O)OP(=O)(O)OP(=O)(O)O)[C@@H](O)[C@H]1O` [ATP], the “Ca2+ concentration in the keratinocytes” value (keratinocytes) is listed as “increase the Ca^2+ concentration in the keratinocytes in a concentration-dependent manner”.
With `O=C(O)CN(CCOCCOCCN(CC(=O)O)CC(=O)O)CC(=O)O` [EGTA, ethylene glycol bis(2-aminoethyl ether) tetraacetic acid] the “effect of EGTA on the increase of oxytocin concentration with increases of ATP gamma s” value ([1]; 2 mM EGTA added 5 minutes before ATP gamma s) was “inhibited”.
